Experimental data from patent publication US20240254119A1 (THIRD HARMONIC BIO, INC., priority 2022, published 2024).

Tested on: KIT phosphorylation in M-07e cells
Assay: Cell-based KIT phosphorylation in M-07e cells by pKIT ELISA
Design: species or system human
Settings: SCF stimulation
Summary of the method: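 Serum-starved M-07e cells (1 × 10^6/mL, overnight) were treated with compounds (8-point 3-fold series from 1 uM) for 2 h at 37 °C, then stimulated with 100 ng/mL SCF for 5 min. Lysate phospho-KIT was captured on anti-phospho-CD117 plates, detected with anti-pY-HRP, and read at 450 nm against a pc-KIT standard curve.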

Structure (SMILES): Cc1ccc(-c2noc(C3CCC(F)C3)n2)cc1NC(=O)c1cnc2ccccn12 (racemic) [Compound I-319]
- IC50: ≤ 50 nM

Structure (SMILES): Cc1ccc(-c2noc(C3CCC3F)n2)cc1NC(=O)c1cnc2ccccn12 (racemic) [Compound I-376]
- IC50: ≤ 50 nM

Structure (SMILES): Cc1ccc(-c2noc(C3CCC3F)n2)cc1NC(=O)c1cnc2ccccn12 (racemic) [Compound I-377]
- IC50: ≤ 50 nM

Structure (SMILES): COc1ccn2c(C(=O)Nc3cc(-c4noc(CC(O)C(F)F)n4)ccc3C)cnc2c1 (single isomer, unassigned) [Compound I-76]
- IC50: ≤ 50 nM

Structure (SMILES): COC(=O)N1CC(c2nc(-c3ccc(C)c(NC(=O)c4cnc5cc(O[C@@H](C)CO)ccn45)c3)no2)C1 (single isomer, unassigned) [Compound I-217]
- IC50: 50 to 500 nM

Structure (SMILES): Cc1ccc(-c2noc(C(C)NS(C)(=O)=O)n2)cc1NC(=O)c1cnc2ccccn12 (single isomer, unassigned) [Compound I-237]
- IC50: 50 to 500 nM

Structure (SMILES): Cc1ccc(-c2noc(C(C)NS(C)(=O)=O)n2)cc1NC(=O)c1cnc2ccccn12 (single isomer, unassigned) [Compound I-238]
- IC50: 50 to 500 nM

Structure (SMILES): Cc1ccc(-c2noc([C@H]3C[C@@H]3F)n2)cc1NC(=O)c1cnc2cc(COCC(C)(C)O)ccn12 [Compound I-71, N-[5-[5-[(1R,2S)-2-fluorocyclopropyl]-1,2,4-oxadiazol-3-yl]-2-methyl-phenyl]-7-[(2-hydroxy-2-methyl-propoxy)methyl]imidazo[1,2-a]pyridine-3-carboxamide]
- IC50 (Homo sapiens): ≤ 50 nM

Structure (SMILES): COCCOCc1ccn2c(C(=O)Nc3cc(-c4noc([C@H]5C[C@@H]5F)n4)ccc3C)cnc2c1 [Compound I-84]
- IC50: ≤ 50 nM

Structure (SMILES): Cc1ccc(-c2noc([C@H]3C[C@@H]3F)n2)cc1NC(=O)c1cnc2cc(OC(F)(F)F)ccn12 [Compound I-87]
- IC50: ≤ 50 nM

Structure (SMILES): Cc1ccc(-c2noc([C@H]3C[C@@H]3F)n2)cc1NC(=O)c1cnc2cc(OC(C)C)ccn12 [Compound I-88]
- IC50: ≤ 50 nM

Structure (SMILES): COc1ccn2c(C(=O)Nc3cc(-c4noc(CC5CC(F)(F)C5)n4)ccc3C)cnc2c1 [Compound I-91]
- IC50: ≤ 50 nM

Structure (SMILES): CCOc1ccn2c(C(=O)Nc3cc(-c4noc([C@H]5C[C@@H]5F)n4)ccc3C)cnc2c1 [Compound I-93]
- IC50: ≤ 50 nM

Structure (SMILES): COc1ccn2c(C(=O)Nc3cc(-c4noc(C[C@H](C)O)n4)ccc3C)cnc2c1 [Compound I-94]
- IC50: ≤ 50 nM

Structure (SMILES): COc1ccn2c(C(=O)Nc3cc(-c4noc(C5CC(F)(F)C5)n4)ccc3C)cnc2c1 [Compound I-96]
- IC50: ≤ 50 nM

Structure (SMILES): Cc1ccc(-c2noc([C@H]3C[C@@H]3F)n2)cc1NC(=O)c1cnn2ccccc12 [Compound I-109]
- IC50: ≤ 50 nM

Structure (SMILES): Cc1ccc(-c2noc(CC(O)C(F)F)n2)cc1NC(=O)c1cnc2ccccn12 (stereo not drawn) [Compound I-114]
- IC50: ≤ 50 nM

Structure (SMILES): COc1ccc2ncc(C(=O)Nc3cc(-c4noc(C[C@@H](C)O)n4)ccc3C)n2c1 [Compound I-119]
- IC50: ≤ 50 nM

Structure (SMILES): Cc1ccc(-c2noc(CC(O)C(F)F)n2)cc1NC(=O)c1cnc2ccccn12 (stereo not drawn) [Compound I-122]
- IC50: ≤ 50 nM

Structure (SMILES): Cc1ccc(-c2noc(CC3CC(F)(F)C3)n2)cc1NC(=O)c1cnc2ccccn12 [Compound I-124]
- IC50: ≤ 50 nM

Structure (SMILES): Cc1ccc(-c2noc(CC3CC3(F)F)n2)cc1NC(=O)c1cnc2ccccn12 (stereo not drawn) [Compound I-125]
- IC50: ≤ 50 nM

Structure (SMILES): Cc1nc(-c2ccc(C)c(NC(=O)c3cnc4cc(C(F)F)ccn34)c2)no1 [Compound I-134]
- IC50: 500 to 5000 nM

Structure (SMILES): Cc1ccc(-c2noc(C3COC3)n2)cc1NC(=O)c1cnc2ccccn12 [Compound I-138]
- IC50: ≤ 50 nM

Structure (SMILES): Cc1nc(-c2ccc(Cl)c(NC(=O)c3cnc4ccccn34)c2)no1 [Compound I-172]
- IC50: 500 to 5000 nM

Structure (SMILES): COC(=O)N1CC(c2nc(-c3ccc(C)c(NC(=O)c4cnn5cc(C#N)ccc45)c3)no2)C1 [Compound I-204]
- IC50: 50 to 500 nM

Structure (SMILES): Cc1nc(-c2ccc(C)c(NC(=O)c3cnc4ccc(N(C)C)cn34)c2)no1 [Compound I-205]
- IC50: ≤ 50 nM

Structure (SMILES): Cc1ccc(-c2cnc(N3CC(F)(F)C3)o2)cc1NC(=O)c1cnc2ccccn12 [Compound I-213]
- IC50: 50 to 500 nM

Structure (SMILES): CCCS(=O)(=O)N1CC(c2nc(-c3ccc(Cl)c(NC(=O)c4cnc5ccccn45)c3)no2)C1 [Compound I-220]
- IC50: 50 to 500 nM

Structure (SMILES): COC(=O)N1CC(c2nc(-c3ccc(C(F)F)c(NC(=O)c4cnc5ccccn45)c3)no2)C1 [Compound I-225]
- IC50: ≤ 50 nM

Structure (SMILES): COCCS(=O)(=O)N1CC(c2nc(-c3ccc(C)c(NC(=O)c4cnc5ccccn45)c3)no2)C1 [Compound I-235]
- IC50: 50 to 500 nM

Structure (SMILES): COC(=O)N1CC(c2nc(-c3ccc(C)c(NC(=O)c4cnc5cc(OC[C@H](C)O)ccn45)c3)no2)C1 [Compound I-262]
- IC50: ≤ 50 nM

Structure (SMILES): COC(=O)N1CC(c2nc(-c3ccc(C)c(NC(=O)c4cnc5cc(OC[C@@H](C)O)ccn45)c3)no2)C1 [Compound I-263]
- IC50: ≤ 50 nM

Structure (SMILES): Cc1ccc(-c2noc([C@H](C)O)n2)cc1NC(=O)c1cnc2ccccn12 [Compound I-271]
- IC50: ≤ 50 nM

Structure (SMILES): COC(=O)N1CC(c2nc(-c3ccc(C)c(NC(=O)c4cnn5ccc(Br)cc45)c3)no2)C1 [Compound I-280]
- IC50: ≤ 50 nM

Structure (SMILES): Cc1ccc(-c2noc([C@H]3C[C@@H]3F)n2)cc1NC(=O)c1cnc2ccc(F)cn12 [Compound I-288]
- IC50: 50 to 500 nM

Structure (SMILES): Cc1ccc(-c2noc(CCO)n2)cc1NC(=O)c1cnc2ccccn12 [Compound I-306]
- IC50: ≤ 50 nM

Structure (SMILES): Cc1ccc(-c2noc(CC(C)(C)O)n2)cc1NC(=O)c1cnc2ccccn12 [Compound I-336]
- IC50: ≤ 50 nM

Structure (SMILES): Cc1ccc(-c2noc(CO)n2)cc1NC(=O)c1cnc2ccccn12 [Compound I-337]
- IC50: ≤ 50 nM

Structure (SMILES): COC(=O)N1CC(c2nc(-c3ccc(Cl)c(NC(=O)c4cnc5ccccn45)c3)no2)C1 [Compound I-339]
- IC50: ≤ 50 nM

Structure (SMILES): O=C(Nc1cc(-c2noc([C@H]3C[C@@H]3F)n2)ccc1Cl)c1cnc2ccccn12 [Compound I-341]
- IC50: 50 to 500 nM

Structure (SMILES): Cc1ccc(-c2noc([C@H]3CC(F)(F)CN3)n2)cc1NC(=O)c1cnc2ccccn12 [Compound I-359]
- IC50: 50 to 500 nM

Structure (SMILES): Cc1nc(-c2ccc(C)c(NC(=O)c3cnc4ccccn34)c2)no1 [Compound I-360]
- IC50: ≤ 50 nM

Structure (SMILES): Cc1ccc(-c2noc(C3CC4(CCC4)C3)n2)cc1NC(=O)c1cnc2ccccn12 [Compound I-367]
- IC50: ≤ 50 nM

Structure (SMILES): Cc1ccc(-c2noc(C3CC(F)C3)n2)cc1NC(=O)c1cnc2ccccn12 (stereo not drawn) [Compound I-381]
- IC50: ≤ 50 nM

Structure (SMILES): Cc1ccc(-c2noc(C3CC(C)(F)C3)n2)cc1NC(=O)c1cnc2ccccn12 (stereo not drawn) [Compound I-387]
- IC50: ≤ 50 nM
